Results published in PubChem BioAssay (NCI).
Several values for one entry are separate records, joined by “and”; a condition that tells them apart may be missing. Equal values may be shown once.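 48-hour exposure; five concentrations; linearly interpolated endpoints. TGI denotes the concentration required for complete inhibition of growth.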

Tests used:
Assay in all cases: DTP human tumour cell line panel, 48 h
OVCAR-8 ovarian = system: OVCAR-8 ovarian
LOX IMVI melanoma = system: LOX IMVI melanoma
KM12 colon = system: KM12 colon
SK-MEL-2 melanoma = system: SK-MEL-2 melanoma
786-0 renal = system: 786-0 renal
NCI-H23 lung = system: NCI-H23 lung
OVCAR-5 ovarian = system: OVCAR-5 ovarian
SNB-75 CNS = system: SNB-75 CNS
HL-60(TB) leukemia = system: HL-60(TB) leukemia
SK-OV-3 ovarian = system: SK-OV-3 ovarian
DU-145 prostate = system: DU-145 prostate

Structure (SMILES)	TGI (OVCAR-8 ovarian)	TGI (LOX IMVI melanoma)	TGI (KM12 colon)	TGI (SK-MEL-2 melanoma)	TGI (786-0 renal) [µM]	TGI (NCI-H23 lung) [µM]	TGI (OVCAR-5 ovarian)	TGI (SNB-75 CNS) [µM]	TGI (HL-60(TB) leukemia) [µM]	TGI (SK-OV-3 ovarian) [µM]	TGI (DU-145 prostate)
CC(C)OP(=O)(OC(C)C)/C(=N/Nc1ccc([N+](=O)[O-])cc1)NNC(=O)c1ccccc1	> 100 µM	70.8 µM	> 100 µM	> 100 µM	> 100	79.3	> 100 µM	> 100	68.9	–	–
CCCc1cn2c(/C=N/N=C(N)N)c(-c3ccc([N+](=O)[O-])cc3)nc2s1	3.21 µM	3.04 µM	–	3.55 µM	1.97	2.82	3.14 µM	–	2.52	2.92	–
CC(C)(Cl)C(Cl)CC/C(CBr)=C(\Cl)CBr (stereo unspecified)	3.92 µM	0.72 µM	6.08 µM	3.28 µM	2.68	3.77	5.19 µM	4.85	–	13.5	20.1 µM
Oc1c(Cl)c(Cl)c(O)c(-c2cnc(-c3ncc(-c4c(O)c(Cl)c(Cl)c(O)c4Cl)s3)s2)c1Cl	52.7 µM	–	> 100 µM	54.1 µM	53.2	39.9	36.4 µM	71.7	> 100	> 100	> 100 µM
Cc1cc2nc3c(C#N)c4c(c(Cl)n3c2cc1C)CCC4	37.4 µM	32 µM	> 100 µM	–	29.5	62.6	77.8 µM	> 100	–	> 100	–
CC(=O)OC1(C)CC(C)C(=O)C(C(O)CC2CC(=O)NC(=O)C2)C1 (stereo unspecified)	0.965 µM and 0.406 µM	0.296 µM and 0.103 µM	0.164 µM and 0.327 µM	0.806 µM and 0.438 µM	0.0669	–	0.293 µM and 2.4 µM	0.0119	–	1.44	0.449 µM and 0.264 µM
Cc1cc(N(CCC#N)CCC#N)ccc1/C=C(\N=[N+]=[N-])C(=O)NC(=O)COc1ccccc1	> 100 µM	> 100 µM	> 100 µM	> 100 µM	> 100	> 100	> 100 µM	> 67.2	> 100	> 100	–
COc1ccc(OC)c(CCc2ccccc2CC(=O)O)c1	> 100 µM	> 100 µM	> 100 µM	> 100 µM	> 100	> 100	> 100 µM	> 100	> 100	> 100	–
O=C(OCC1CC(C2(O)CCCCC2)C(=O)O1)c1ccccc1 (stereo unspecified)	> 100 µM	> 100 µM	> 100 µM	> 100 µM	> 100	> 100	> 100 µM	> 100	–	> 100	> 100 µM
CCCCCCCC(=O)OC(COC(=O)Cc1ccccc1)COC(=O)C(C)(C)C (stereo unspecified)	> 100 µM	> 100 µM	–	–	> 100	> 100	> 100 µM	–	> 100	> 100	–
COc1c(-c2ccc(F)cc2)oc2c(CC(=O)O)cccc2c1=O	> 100 µM	–	–	> 100 µM	> 100	> 100	> 100 µM	–	> 100	> 100	> 100 µM
CCn1c(=O)c2c3ccc(O)cc3[nH]c2c2ccc(O)cc21	> 100 µM	–	> 100 µM	–	–	> 100	> 100 µM	> 100	–	> 100	> 100 µM
CC1=C(C(=O)NNC(=O)c2ccccc2O)CC(C(=O)NNC(=O)c2ccccc2O)=C(C)N1	> 65.3 µM	> 100 µM	> 100 µM	> 100 µM	> 61.7	> 100	> 100 µM	> 100	–	> 100	> 93.5 µM
O=C1NC(NNc2ccccc2)=N/C1=C\c1ccco1	32.7 µM	–	54.6 µM	48.2 µM	40.2	45.9	> 100 µM	> 100	90.3	> 100	42.9 µM
Cc1nc2c(n1Cc1ccc(F)cc1)C(=O)c1ccccc1C2=O	> 100 µM	> 100 µM	> 100 µM	> 100 µM	> 100	> 100	–	> 100	29.7	> 100	–
O=C(Cn1c2ccc(Br)cc2c2nc3ccccc3nc21)N1CCOCC1	> 100 µM	> 100 µM	> 100 µM	> 100 µM	> 100	> 100	> 100 µM	> 100	–	> 100	> 100 µM
CCCCCC1CC(C(C)=O)CN1c1ccc(F)cc1 (stereo unspecified)	> 100 µM	> 100 µM	> 100 µM	> 100 µM	–	63.8	> 100 µM	86.5	> 10	–	–
C=C1C(=O)O[C@H]2C1C[C@H](O)/C(C)=C/CC[C@@]1(C)O[C@H]21 (stereo partly specified)	37.6 µM	23.5 µM	30.1 µM	39.9 µM	32.8	37.5	33.9 µM	> 100	–	> 100	49.5 µM
CCOC(OCC)[C@@H]1C[C@@H]2N(O[C@H](OC3CCCC3(c3ccccc3)c3ccccc3)[C@H](OC(C)=O)[C@@]2(CC)Cc2ccc(OC)c(OC)c2)O1 (stereo partly specified)	–	> 100 µM	> 100 µM	> 100 µM	> 100	> 100	> 100 µM	> 100	–	> 100	> 100 µM
CCOC(=O)CN1C(=O)c2c(NC(=O)C(=O)O)cccc2S1(=O)=O	> 100 µM	> 100 µM	> 100 µM	> 100 µM	> 100	> 100	> 100 µM	–	> 100	> 100	> 100 µM
O=C(/C=C/c1ccc(Cl)cc1)c1nc2ccccc2[nH]1	> 100 µM	32.6 µM	13.3 µM	> 100 µM	29.6	> 100	> 100 µM	43.8	–	> 100	33.1 µM
CCC/C=C/C=C\C(=O)O[C@@H]1[C@@H](C)[C@]2(O)[C@@H]3C=C(C)C(=O)[C@H]3CC(COC(C)=O)=C[C@H]2[C@@H]2C(C)(C)[C@]12OC(C)=O	116 µM	57.7 µM	106 µM	104 µM	–	98.6	119 µM	121	30.5	143	–
